The text below walks through data of patent US11266170B2, “Sweetener and flavor compositions, methods of making and methods of use thereof” (EPC Natural Products Co., Ltd., priority 2018, dated 2022).

The conditions of assay [1]: cited from earlier work; for Sweetness by weight / Sweetness by food energy: compared to sucrose; for times sweeter than sucrose: relative to sucrose / sugar, the sweetness depends on the tested concentration.
The test system of another assay is 3 persons. The experiment in a line: Sensory analysis of odor/smell, color and taste of reacted samples (Examples 55-62). In kind it is in vivo. The method, then:
The reaction partners were dissolved in water and then warmed glycerin (60° C.) was added. […]
The taste test was performed as in Example 38.
All samples were assessed at 22° C. after the Maillard reaction was stopped by placing the sealed vials in an ice bath. After 20 minutes in the ice bath the sealed vials were put in a water bath set to 22° C.
The odor/smell was assessed independently by 3 persons; the final description was agreed after discussion. […] The taste was assessed independently by 3 persons either in the original samples or after appropriate dilution to achieve relevant concentrations of sugars and steviol-glycosides (i.e. 5-9% SE); the final description was agreed after discussion.

Setting [2] is: negative controls (no carbohydrate source), 10 ml glycerin/water 9:1, 100 °C, 40 minutes.
Setting [3] is: Example 57, before reaction, 10 ml KH2PO4, pH 7.8.
Where [4] appears, read: Example 57, after reaction, 10 ml KH2PO4, pH 7.8, 2.5 h, 120 °C.

Residues, ends and D or L forms follow the SMILES beside them.

In the case of Pentadin, the Sweetness by weight in assay [1] is on record as 500.
Regarding Polydextrose, the Sweetness by weight in assay [1] is on record as 0.1.
As for `COc1ccc(CCC(=O)c2c(O)cc(O[C@@H]3O[C@H](CO)[C@@H](O)[C@H](O)[C@H]3O[C@@H]3O[C@@H](C)[C@H](O)[C@@H](O)[C@H]3O)cc2O)cc1O` [NHDC, Neohesperidin dihydrochalcone], in assay [1] (at threshold concentrations), the “times sweeter than sugar at threshold concentrations” value is given as 1500-1800 times. Besides, the “times sweeter than sugar weight-for-weight” value in assay [1] (weight-for-weight) is given as “about 340 times”.
For the molecule `OC[C@@H](O)[C@@H](O[C@H]1O[C@H](CO)[C@@H](O)[C@H](O)[C@H]1O)[C@H](O)[C@@H](O)CO` [Maltitol], in assay [1], the “Sweetness by food energy” value was 1.7 and the Sweetness by weight is listed as 0.75-0.9.
For the molecule `OC[C@H]1O[C@H](O[C@]2(CCl)O[C@H](CCl)[C@@H](O)[C@@H]2O)[C@H](O)[C@@H](O)[C@H]1Cl` [sucralose], in assay [1], the “times sweeter than sucrose” value is reported as “about 600 times”.
On to `C=C1C[C@@]23CC[C@H]4[C@@](C)(CCC[C@@]4(C)C(=O)O[C@@H]4O[C@H](CO)[C@@H](O)[C@H](O)[C@H]4O)[C@@H]2CC[C@]1(O[C@@H]1O[C@H](CO)[C@@H](O)[C@H](O)[C@H]1O)C3` [Rubusoside], for which the “times sweeter than sucrose” value in assay [1] is given as 200 times.
In the case of `NCCCC[C@H](N)C(=O)O` [14.7 mg Lys], in the assay on 3 persons (setting [2]), the Smell entry is “Popcorn” and the Taste entry is on record as “Slightly sweet”.
As for `OCC(O)CO` [Glycerol], in assay [1], the “Sweetness by food energy” value is 0.55 and the Sweetness by weight is recorded as 0.6.
Mabinlin: the Sweetness by weight in assay [1] is 100.
On to `O=C(O)[C@@H]1CCCN1` [11.5 mg Pro], for which the Taste result in the assay with 3 persons (setting [2]) is on record as “Slightly sweet”.
For `CSCC[C@H](N)C(=O)O` [14.9 mg Met], in the assay on 3 persons (setting [2]), the Smell result is reported as “Sulfuric” and the Taste result is on record as “Slightly sweet”.
For the molecule `O=C(CO)[C@@H](O)[C@@H](O)[C@H](O)CO` [Tagatose], in assay [1], the “Sweetness by food energy” value is listed as 2.4 and the Sweetness by weight was 0.92.
For `N[C@@H](Cc1ccc(O)cc1)C(=O)O` [18.1 mg Tyr], in the assay on 3 persons (setting [2]), the Smell result was “neutral” and the Taste entry is recorded as “Slightly sweet”.
In the case of `O=S(=O)([O-])NC1CCCCC1.[Na+]` [sodium cyclamate], the “times sweeter than sucrose” value in assay [1] is given as “about 30 times”.
With `OC[C@H]1OC(O)[C@H](O)[C@@H](O)[C@@H]1O` (stereo partly shown) [9 mg Glucose], in the assay with 3 persons (setting [3]), the Smell entry was “neutral” and the Taste entry was “Sweet”.
Consider Curculin, for which the Sweetness by weight in assay [1] is reported as 430-2070.
As to `OC[C@@H](O)[C@@H](O)CO` [Erythritol], in assay [1], the “Sweetness by food energy” value was 14 and the Sweetness by weight is recorded as 0.6-0.7.
In the case of `N[C@@H](CS)C(=O)O` [12.1 mg Cys], in the assay with 3 persons (setting [2]), the Smell result is given as “Unpleasant (sulfur)” and the Taste entry was “Slightly sweet”.
Take `O=C[C@H](O)[C@@H](O)[C@H](O)[C@H](O)C(=O)O` [Glucuronic Acid]: in the assay with 3 persons (setting [4]), the Smell result was “burnt bread” and the Taste entry was “Bitter”.
On to `OC[C@@H](O)[C@@H](O)[C@H](O)[C@H](O)CO` [Mannitol], for which, in assay [1], the “Sweetness by food energy” value is given as 1.2, the Sweetness by weight is reported as 0.5 and the “times sweeter than sucrose” value is reported as 0.55-0.65 times.
Take `O=C1O[C@@H]2[C@@H](O)[C@H](O)O[C@@H]2C1O` (stereo partly shown) [Glucuronolactone]: in the assay on 3 persons (setting [4]), the Smell result is listed as “Burnt sugar” and the Taste result was “Bitter”.
As to `OC[C@@H](O)[C@@H](O[C@@H]1O[C@H](CO)[C@H](O)[C@H](O)[C@H]1O)[C@H](O)[C@@H](O)CO` [Lactitol], in assay [1], the “Sweetness by food energy” value is 0.8 and the Sweetness by weight was 0.4.
On to `OC[C@H]1O[C@H](OC[C@H]2OC(O)(CO)[C@@H](O)[C@@H]2O)[C@H](O)[C@@H](O)[C@@H]1O` (stereo partly shown) [Isomaltulose], for which the Sweetness by weight in assay [1] is 0.5.
As for `C[C@H](CC[C@@H](O[C@@H]1O[C@H](CO[C@@H]2O[C@H](CO)[C@@H](O)[C@H](O)[C@H]2O)[C@@H](O)[C@H](O)[C@H]1O[C@@H]1O[C@H](CO)[C@@H](O)[C@H](O)[C@H]1O)C(C)(C)O)[C@H]1CC[C@@]2(C)[C@@H]3CC=C4[C@@H](CC[C@H](O[C@@H]5O[C@H](CO[C@@H]6O[C@H](CO)[C@@H](O)[C@H](O)[C@H]6O)[C@@H](O)[C@H](O)[C@H]5O)C4(C)C)[C@]3(C)[C@H](O)C[C@]12C` [mogroside V], in assay [1], the “times sweeter than sucrose” value is given as 256-344 times.
For the molecule `N[C@@H](C[C@@](O)(Cc1c[nH]c2ccccc12)C(=O)O)C(=O)O` [Monatin], in assay [1], the Sweetness by weight was 3,000.
As to Maltodextrin, the Sweetness by weight in assay [1] is 0.15.
Consider Monellin, for which the Sweetness by weight in assay [1] is given as 800-2,000.
Take `N[C@@H](CO)C(=O)O` [10.5 mg Ser]: in the assay on 3 persons (setting [2]), the Smell result was “Lotus flower” and the Taste entry is “Slightly sweet”.
Take `C[C@@H](O)[C@H](N)C(=O)O` [11.91 mg Thr]: in the assay on 3 persons (setting [2]), the Smell entry is “Vanilla, butter” and the Taste result is “Slightly sweet”.
Take `COC(=O)[C@H](Cc1ccccc1)NC(=O)[C@@H](N)CC(=O)O` [Aspartame] (H-Asp-Phe-OMe): the “times sweeter than sucrose” value in assay [1] is listed as 160-200 times.
On to `CC1(C)[C@@H](O[C@H]2O[C@H](C(=O)O)[C@@H](O)[C@H](O)[C@H]2O[C@@H]2O[C@H](C(=O)O)[C@@H](O)[C@H](O)[C@H]2O)CC[C@]2(C)[C@H]3C(=O)C=C4[C@@H]5C[C@@](C)(C(=O)O)CC[C@]5(C)CC[C@@]4(C)[C@]3(C)CC[C@@H]12` [Glycyrrhizin], for which the Sweetness by weight in assay [1] is listed as 30-50.
On to Isomalt, for which, in assay [1], the “Sweetness by food energy” value was 0.9-1.3 and the Sweetness by weight is 0.45-0.65.
`O=C(CO)[C@H](O)[C@H](O)[C@H](O)CO` [Psicose]: the Sweetness by weight in assay [1] is 0.7.
Take `C[C@H](CC[C@@H](O[C@@H]1O[C@H](CO)[C@@H](O)[C@H](O)[C@H]1O[C@@H]1O[C@H](CO)[C@@H](O)[C@H](O)[C@H]1O)C(C)(C)O)[C@H]1CC[C@@]2(C)[C@H]3CC=C4[C@@H](CC[C@H](O[C@@H]5O[C@H](CO[C@@H]6O[C@H](CO)[C@@H](O)[C@H](O)[C@H]6O)[C@@H](O)[C@H](O)[C@H]5O)C4(C)C)[C@]3(C)[C@H](O)C[C@]12C` [mogroside IV]: the “times sweeter than sucrose” value in assay [1] is recorded as 126 times.
For Inulin, the Sweetness by weight in assay [1] was 0.1.
`OC[C@@H](O)[C@@H](O)[C@H](O)[C@@H](O)CO` [Sorbitol]: in assay [1], the “Sweetness by food energy” value is given as 0.9 and the Sweetness by weight is given as 0.6.
As for `C[C@@H]1O[C@@H](O[C@H]2O[C@@H]([C@@H](C)C3CC[C@@H]4[C@H]5CC(=O)[C@@H]6C[C@H](O[C@@H]7O[C@H](CO)[C@@H](O)[C@H](O)[C@H]7O[C@@H]7O[C@@H](C)[C@H](O)[C@@H](O)[C@H]7O)CC[C@]6(C)[C@@H]5CC[C@]34C)CC[C@@H]2C)[C@H](O)[C@H](O)[C@H]1O` (stereo partly shown) [Osladin], the Sweetness by weight in assay [1] is on record as 500.
As to “Brazzein (QDKCKKVYENYPVSKCQLANQCNYDCKLDKHARSGECFYDEKRNLQCICDYCEY; UniProt P56552 1-54, looked up) [Protein]”, the Sweetness by weight in assay [1] is 500-2000.

B1: Miraculin (protein, UniProt P13087 30-220, looked up)
Miraculin: DSAPNPVLDIDGEKLRTGTNYYIVPVLRDHGGGLTVSATTPNGTFVCPPRVVQTRKEVDHDRPLAFFPENPKEDVVRVSTDLNINFSAFMPCRWTSSTVWRLDKYDESTGQYFVTIGGVKGNPGPETISSWFKIEEFCGSGFYKLVFCPTVCGSCKVKCGDVGIYIDQKGRRRLALSDKPFAFEFNKTVYF
As for B1, in assay [1] (result in words), the “Notes (taste)” value is recorded as “A protein that does not taste sweet by itself”.
